Target: T1, uterine OT receptors (Rattus norvegicus, UniProt P70536)
T1 construct: from tissue; host or cells: uterus of DES-treated rats, crude membrane preparation
T1 sequence (P70536 1-388): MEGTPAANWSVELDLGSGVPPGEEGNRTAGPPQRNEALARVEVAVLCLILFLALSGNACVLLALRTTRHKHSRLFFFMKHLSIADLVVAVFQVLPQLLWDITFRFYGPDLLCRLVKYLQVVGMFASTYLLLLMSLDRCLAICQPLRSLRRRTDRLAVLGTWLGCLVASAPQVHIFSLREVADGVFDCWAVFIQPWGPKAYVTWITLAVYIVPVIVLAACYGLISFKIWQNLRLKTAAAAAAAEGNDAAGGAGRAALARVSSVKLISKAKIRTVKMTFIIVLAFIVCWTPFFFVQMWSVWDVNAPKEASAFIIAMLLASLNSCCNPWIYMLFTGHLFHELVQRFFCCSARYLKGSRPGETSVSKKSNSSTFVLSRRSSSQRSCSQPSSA
Experiment: [3H]Oxytocin radioligand binding assay, crude uterine membrane preparation
Set-up: species or system rats
Conditions: for IC50: competition with 1 nM [3H]OT, 60 minutes, 22 °C, membranes of uteri from DES-treated rats; for inhibition at 1 µM: at 1,000 nM compound

[1] = at 100 nM compound, 1 nM [3H]OT, rat uterine membranes
[2] = 1 nM [3H]OT, rat uterine membranes

Method: Oxytocin (OT)([tyrosyl, 3,5-[^3H]OT; 30-60 Ci/mmol; New England Nuclear. Boston, MA) to uterine OT receptors was based on an assay*using a crude membrane preparation of uteri taken from diethylstilbestrol dipropionate (DES)-treated (0.3 mg/kg, ip; 18-24) rats. Competetion studies were conducted at equilibrium (60 minutes; 22 °C) using 1 nM[^3H]OT in the following assay buffer: 50 mM Tris-HCI, 5 mM MgCl2, and 0.1% BSA, pH 7.4. Nonspecific binding (10% of the total binding) was determined using 1µM unlabeled OT and the binding reaction was terminated by filtration through glass fiber filters using a cell harvester (model 7019, Skatron, Inc., Sterling, VA).

Structure (SMILES) | IC50 [nM] | further results
COC(=O)CCN(CCC(=O)OC)CC(C)C1(O)CC2CCC1(CS(=O)(=O)N1CCN(c3ccccc3C)CC1)C2(C)C (stereo not drawn) [Example 11, 1-((7,7-dimethyl-2-exo-hydroxy-2-endo-2-(1-bis-(2-methoxycarbonylethyl)amino)propylbicyclo(2.2.1)heptan-1-yl)methanesulfonyl)-4-(2-methylphenyl)piperazine] | 54 | –
CCOC(=O)CN1CCCC(C(=O)NC(C)CC2(O)CC3CCC2(CS(=O)(=O)N2CCN(c4ccccc4C)CC2)C3(C)C)C1 (centres unmarked) [Example 57] | – | inhibition at 100 nM [1]: 66% inhibition at 100 nM
Cc1ccccc1N1CCN(S(=O)(=O)CC23CCC(CC2=O)C3(C)C)CC1 (centres unmarked) [Example 1, 1-((7,7-DIMETHYL-2-OXO-BICYCLO(2.2.1)HEPTAN-1-YL) METHANESULFONYL)-4-(2-METHYLPHENYL)-PIPERAZINE] | 1000 | –
COC(=O)C1=CC2CCC1(CS(=O)(=O)N1CCN(c3ccccc3C)CC1)C2(C)C (centres unmarked) [Example 20, 1-((7,7-DIMETHYL-2-METHOXYCARBONYL-BICYCLO (2.2.1)HEPT-2-EN-1-YL)METHANESULFONYL)-4-(2-METHYLPHENYL)PIPERAZINE] | – | inhibition at 1 µM [2]: 72%
Cc1ccccc1N1CCN(S(=O)(=O)CC23CCC(CC2(O)C(C)CNC(=O)C2CCN(CCC(=O)O)CC2)C3(C)C)CC1 (stereo not drawn) [Example 56, 1-((7,7-DIMETHYL-2-EXO-HYDROXY-2-ENDO-2-(1-(4-(1-CARBOXYETHYL)PIPERIDINYLCARBONYL)-AMINO)PROPYL-BICYCLO-(2.2.1)HEPTAN-1-YL)METHANESULFONYL)-4-(2-METHYLPHENYL) PIPERAZINE] | 54 | –
Cc1ccccc1N1CCN(S(=O)(=O)CC23CCC(CC2NC(=O)[C@@H](N)CCS(C)(=O)=O)C3(C)C)CC1=O (stereo partly drawn) [Example 36, 1-((7,7-DIMETHYL-2-ENDO-(2S-AMINO-4-(METHYLSULFONYL)BUTYRAMIDO)-BICYCLO(2.2.1 )HEPTAN-1-YL)METHANESULFONYL)-4-(2-METHYLPHENYL)-3-PIPERAZINONE] | 7.7 | –
Cc1ccccc1N1CCN(S(=O)(=O)CC23CCC(CC2=O)C3(C)C)C(C)C1=O (centres unmarked) [Example 31] | – | inhibition at 10 µM (at 10,000 nM compound, 1 nM [3H]OT, rat uterine membranes): 5%
Cc1ccccc1N1CCN(S(=O)(=O)CC23CCC(CC2N(C)C(=O)OCc2ccccc2)C3(C)C)CC1 (centres unmarked) [Example 40] | – | inhibition at 1 µM [2]: 35%
Cc1ccccc1N1CCN(S(=O)(=O)CC23CCC(CC2(O)C(C)CNC(=O)Cc2c[nH]cn2)C3(C)C)CC1 (centres unmarked) [Example 7] | 8 | –
Cc1ccccc1N1CCN(S(=O)(=O)CC23CCC(CC2(O)C(C)CNC(=O)C2CN4CCC2CC4)C3(C)C)CC1 (centres unmarked) [Example 8] | 18 | –
COC(=O)CCNCC(C)C1(O)CC2CCC1(CS(=O)(=O)N1CCN(c3ccccc3C)CC1)C2(C)C (centres unmarked) [Example 10] | – | inhibition at 0.1 µM [1]: 48%

— EP0533240A2, “Substituted amine derivatives of piperazinylcamphorsulfonyl oxytocin antagonists” (MERCK & CO. INC., priority 1991, dated 1993)
